Reference: PubChem BioAssay (NCI)
“And” between values parts separate entries of the source, which are not always exact repeats. Equal values may be shown once.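 The compound was tested at five concentrations on cells cultured in 96-well plates, with a 48-hour exposure period. GI50 = concentration required for 50% inhibition of growth. TGI marks complete inhibition of growth.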

How the values were obtained:
Test in all cases: NCI tumour cell line growth inhibition, 48 h
DMS 114 small cell lung = tested on: DMS 114 small cell lung
DMS 273 small cell lung = tested on: DMS 273 small cell lung
IGROV1 ovarian = tested on: IGROV1 ovarian
KM20L2 colon = tested on: KM20L2 colon
LXFL 529 NSCLC = tested on: LXFL 529 NSCLC
M19-MEL melanoma = tested on: M19-MEL melanoma
NCI-H460 lung = tested on: NCI-H460 lung
SNB-78 CNS = tested on: SNB-78 CNS
XF 498 CNS = tested on: XF 498 CNS
HOP-18 NSCLC = tested on: HOP-18 NSCLC
RXF-631 renal = tested on: RXF-631 renal
MCF7 breast = tested on: MCF7 breast
MDA-MB-231 breast = tested on: MDA-MB-231 breast
P388 leukemia = tested on: P388 leukemia
P388/ADR leukemia = tested on: P388/ADR leukemia
SN12K1 renal = tested on: SN12K1 renal

Compound | TGI (DMS 114 small cell lung) [µM] | TGI (DMS 273 small cell lung) [µM] | TGI (IGROV1 ovarian) [µM] | TGI (KM20L2 colon) [µM] | TGI (LXFL 529 NSCLC) [µM] | TGI (M19-MEL melanoma) [µM] | TGI (NCI-H460 lung) [µM] | TGI (SNB-78 CNS) [µM] | TGI (XF 498 CNS) [µM] | TGI (HOP-18 NSCLC) [µM] | TGI (RXF-631 renal) [µM] | TGI (MCF7 breast) | TGI (MDA-MB-231 breast) [µM] | GI50 (NCI-H460 lung) | TGI (P388 leukemia) [µM] | TGI (P388/ADR leukemia) [µM] | TGI (SN12K1 renal) [µM]
CC1=CC(=C(c2ccc(N)c(C)c2)c2ccc(N)c(C)c2)C=CC1=N | 9.96 | 10.8 | 71.8 | 14.5 | 15 | 14.7 | > 31.6 | 23.4 | 11.7 | – | – | – | – | – | – | – | –
CC[N+](C)(C)c1ccc(C(=C2C=CC(=[N+](C)C)C=C2)c2ccc(N(C)C)cc2)cc1 | 26.7 | 25.6 | 40.8 | – | 34.1 | 25 | 22.4 | – | 33.2 | > 100 | 38.4 | – | – | – | – | – | –
N#Cc1c(-c2cccc(Br)c2)cc(-c2ccc(Cl)cc2)nc1N | – | – | 34.3 | – | – | – | 50.8 | – | – | – | – | > 100 µM | – | – | – | – | –
COc1cc2c(cc1C)NC(=O)/C2=C\c1cccnc1 | – | – | – | – | – | – | 85.4 | – | – | – | – | 47.8 µM | – | – | – | – | –
COc1cccc2c1C(=O)c1c(O)c3c(c(O)c1C2=O)CC(O)(C(C)=O)CC3OC1CC([N+](C)(C)C)C(O)C(C)O1 (stereo not drawn) | > 100 | > 100 | > 100 | > 100 | > 100 | > 100 | > 100 | > 100 | 92.2 | > 100 | > 100 | – | – | – | – | – | –
COC1C(=[N+]=[N-])C(=O)NC(=O)N1C1OC(COC(c2ccccc2)(c2ccccc2)c2ccccc2)C(O)C1O (stereo not drawn) | – | – | 47.5 | 31.1 | 32.1 | 39.5 | 60.6 | 45.6 | – | 37.5 | – | – | – | – | – | – | –
OC12c3ccccc3C1CCCCCCCCCC21OCCCO1 (stereo not drawn) | > 100 | > 100 | > 100 | – | > 100 | > 100 | – | > 100 | > 100 | > 100 | – | – | – | – | – | – | –
CCOC(=O)c1csc(NC(=O)CN2CCCCC2)n1 | – | – | > 100 | – | – | – | > 100 | – | – | – | – | > 100 µM | > 100 | – | – | – | –
COC(=O)C1C(O)C(C)C(O)C(C)/C=C\C=C(C)C(=O)Nc2c(C)c(OC(C)=O)c3c(c2O)C(=O)C(C)=C2OCOC(=C23)C(C)=CC(C)(O)C(O)C(C)C1O (stereo not drawn) | 52.6 | > 75 | > 100 | > 72.8 | – | – | > 100 | > 75 | – | – | – | 51.1 µM and > 100 µM | > 100 | 20.5 µM and > 100 µM | 47.1 | > 58.5 | > 63.3
O=S(=O)(O)c1cccc2ccc(O)c(N=Nc3ccc(S(=O)(=O)c4ccc(N=Nc5c(O)ccc6cccc(S(=O)(=O)O)c56)cc4)cc3)c12 | – | – | > 100 | – | – | – | – | – | – | – | – | – | > 100 | – | – | – | –
O=S(=O)(O)c1ccc(N=Nc2c(O)ccc3ccccc23)cc1 | – | – | > 100 | – | – | – | > 100 | – | – | – | – | > 100 µM | > 100 | – | – | – | –
O=S(=O)(O)c1cc(S(=O)(=O)O)c2c(N=Nc3ccccc3)c(O)ccc2c1 | – | – | > 100 | – | – | – | – | – | – | – | – | – | > 100 | – | – | – | –
